Data published in paper PMC6044503 (ACS Omega, 2017).
Several values for one entry are separate records, joined by “and”; a condition that tells them apart may be missing. Identical values can stand only once. Where a SMILES comes first, the peptide text is derived from it. [ ]: non-standard residue; d: D form. The star is where a group is joined. 1Nal = N[C@@H](Cc1cccc2ccccc12)C(=O)O; 2Nal = N[C@@H](Cc1ccc2ccccc2c1)C(=O)O; Cyclohexanecarbonyl = O=C(C1CCCCC1)*; 1Naphthoyl = O=C(c1cccc2ccccc12)*; 2Naphthoyl = O=C(c1ccc2ccccc2c1)*; Cha = N[C@@H](CC1CCCCC1)C(=O)O; 4Amb = NCc1ccc(C(=O)O)cc1; Isobutyryl = CC(C)C(=O)*; Nle = CCCC[C@H](N)C(=O)O; Aib = CC(C)(N)C(=O)O; Bz = O=C(c1ccccc1)*

Legend:
male C57BL/6J mice = test: Food intake assay, bolus ip administration in lean mice; type: in vivo, mouse; details: for % food intake inhibition: vs saline; for % food intake inhibition / % food intake inhibition (cumulative): mean ± SD; for minimum effective dose (food intake reduction): ip administration, lean mice
human Y2R [1] = target: T1, human Y2R (Homo sapiens, UniProt P49146); test: biochemical; type: biochemical
T1 sequence (P49146 1-381): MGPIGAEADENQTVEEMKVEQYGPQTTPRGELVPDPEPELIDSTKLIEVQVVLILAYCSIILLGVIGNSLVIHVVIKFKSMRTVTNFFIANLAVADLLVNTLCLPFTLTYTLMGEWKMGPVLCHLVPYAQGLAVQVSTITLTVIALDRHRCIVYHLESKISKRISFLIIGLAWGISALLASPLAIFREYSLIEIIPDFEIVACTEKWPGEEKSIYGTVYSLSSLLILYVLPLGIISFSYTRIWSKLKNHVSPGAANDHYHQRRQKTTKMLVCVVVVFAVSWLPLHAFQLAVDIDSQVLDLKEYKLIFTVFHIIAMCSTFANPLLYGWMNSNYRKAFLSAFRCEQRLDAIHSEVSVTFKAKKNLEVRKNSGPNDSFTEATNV

human Y2R [2] = target: T1, human Y2R; test: biochemical; type: binding
[3] = bolus ip 250 nmol/kg, 3 h after administration
[4] = bolus ip 500 nmol/kg, 3 h after administration

Structure (SMILES)	% food intake inhibition (male C57BL/6J mice; [4])	EC50 (human Y2R [1])	IC50 (human Y2R [2])	other results
CC(C)C[C@H](NC(=O)[C@H](CC(N)=O)NC(=O)[C@H](CC1CCCCC1)NC(=O)[C@H](CC1CCCCC1)NC(=O)[C@H](Cc1c[nH]cn1)NC(=O)[C@H](CCCNC(=N)N)NC(=O)C(C)C)C(=O)NC(C)(C)C(=O)N[C@H](C(=O)N[C@@H](CCCNC(=N)N)C(=O)N[C@@H](CCC(N)=O)C(=O)N[C@@H](CCCNC(=N)N)C(=O)N[C@@H](CC1CCCCC1)C(N)=O)[C@@H](C)O [Compound 23] (Isobutyryl-RH[Cha][Cha]NL[Aib]TRQR[Cha]-NH2)	20 ± 11%	1.2 nM	3.1 nM	% food intake inhibition (male C57BL/6J mice; [3]): 14 ± 7%
CC(C)C[C@H](NC(=O)[C@H](CC(N)=O)NC(=O)[C@H](CC1CCCCC1)NC(=O)[C@H](CC1CCCCC1)NC(=O)[C@H](Cc1c[nH]cn1)NC(=O)[C@H](CCCNC(=N)N)NC(=O)c1cccc2ccccc12)C(=O)NC(C)(C)C(=O)N[C@H](C(=O)N[C@@H](CCCNC(=N)N)C(=O)N[C@@H](CCC(N)=O)C(=O)N[C@@H](CCCNC(=N)N)C(=O)N[C@@H](CC1CCCCC1)C(N)=O)[C@@H](C)O [Compound 25] (1Naphthoyl-RH[Cha][Cha]NL[Aib]TRQR[Cha]-NH2)	–	5.8 nM	18 nM	–
CC(C)C[C@H](NC(=O)[C@H](CC(N)=O)NC(=O)[C@H](Cc1ccc2ccccc2c1)NC(=O)[C@H](CC1CCCCC1)NC(=O)[C@H](Cc1c[nH]cn1)NC(=O)[C@H](CCCNC(=N)N)NC(=O)c1ccccc1)C(=O)NC(C)(C)C(=O)N[C@H](C(=O)N[C@@H](CCCNC(=N)N)C(=O)N[C@@H](CCC(N)=O)C(=O)N[C@@H](CCCNC(=N)N)C(=O)N[C@@H](CC1CCCCC1)C(N)=O)[C@@H](C)O [Compound 20] (Bz-RH[Cha][2Nal]NL[Aib]TRQR[Cha]-NH2)	18 ± 2%	7.5 nM	29 nM	–
CC(C)C[C@H](NC(=O)[C@H](CC(N)=O)NC(=O)[C@H](CC1CCCCC1)NC(=O)[C@H](CC1CCCCC1)NC(=O)[C@H](Cc1cnc[nH]1)NC(=O)[C@H](CCCNC(=N)N)NC(=O)c1ccc(CN)cc1)C(=O)NC(C)(C)C(=O)N[C@H](C(=O)N[C@@H](CCCNC(=N)N)C(=O)N[C@@H](CCC(N)=O)C(=O)N[C@@H](CCCNC(=N)N)C(=O)N[C@@H](CC1CCCCC1)C(N)=O)[C@@H](C)O [Compound 24] (H-[4Amb]RH[Cha][Cha]NL[Aib]TRQR[Cha]-NH2)	29 ± 7%	0.48 nM	0.65 nM	–
CC[C@H](C)[C@H](NC(=O)[C@H](Cc1c[nH]c2ccccc12)NC(=O)[C@H](CC(N)=O)NC(=O)[C@H](CC1CCCCC1)NC(=O)[C@H](CC1CCCCC1)NC(=O)[C@H](Cc1c[nH]cn1)NC(=O)[C@H](CCCNC(=N)N)NC(=O)C1CCCCC1)C(=O)N[C@H](C(=O)N[C@@H](CCCNC(=N)N)C(=O)N[C@@H](CCC(N)=O)C(=O)N[C@@H](CCCNC(=N)N)C(=O)N[C@@H](CC1CCCCC1)C(N)=O)[C@@H](C)O [Compound 14] (Cyclohexanecarbonyl-RH[Cha][Cha]NWITRQR[Cha]-NH2)	23 ± 7%	11 nM	15 nM	–
CC(C)C[C@H](NC(=O)[C@H](CC(N)=O)NC(=O)[C@H](CC1CCCCC1)NC(=O)[C@H](CC1CCCCC1)NC(=O)[C@H](Cc1c[nH]cn1)NC(=O)[C@H](CCCNC(=N)N)NC(=O)c1ccc2ccccc2c1)C(=O)NC(C)(C)C(=O)N[C@H](C(=O)N[C@@H](CCCNC(=N)N)C(=O)N[C@@H](CCC(N)=O)C(=O)N[C@@H](CCCNC(=N)N)C(=O)N[C@@H](CC1CCCCC1)C(N)=O)[C@@H](C)O [Compound 26] (2Naphthoyl-RH[Cha][Cha]NL[Aib]TRQR[Cha]-NH2)	–	6 nM	26 nM	–
CC(C)C[C@H](NC(=O)[C@H](CC(N)=O)NC(=O)[C@H](CC1CCCCC1)NC(=O)[C@H](Cc1ccc2ccccc2c1)NC(=O)[C@H](Cc1c[nH]cn1)NC(=O)[C@H](CCCNC(=N)N)NC(=O)C1CCCCC1)C(=O)NC(C)(C)C(=O)N[C@H](C(=O)N[C@@H](CCCNC(=N)N)C(=O)N[C@@H](CCC(N)=O)C(=O)N[C@@H](CCCNC(=N)N)C(=O)N[C@@H](CC1CCCCC1)C(N)=O)[C@@H](C)O [Compound 29] (Cyclohexanecarbonyl-RH[2Nal][Cha]NL[Aib]TRQR[Cha]-NH2)	28 ± 8%	14 nM	18 nM	–
CCCC[C@H](NC(=O)[C@H](CC(C)C)NC(=O)[C@H](CC(N)=O)NC(=O)[C@@H](NC(=O)[C@H](CC1CCCCC1)NC(=O)[C@H](Cc1c[nH]cn1)NC(=O)[C@H](CCCNC(=N)N)NC(=O)c1ccccc1)[C@@H](C)CC)C(=O)N[C@H](C(=O)N[C@@H](CCCNC(=N)N)C(=O)N[C@@H](CCC(N)=O)C(=O)N[C@@H](CCCNC(=N)N)C(=O)N[C@@H](CC1CCCCC1)C(N)=O)[C@@H](C)O [Compound 7] (Bz-RH[Cha]INL[Nle]TRQR[Cha]-NH2)	–	2.4 nM	13 nM	% food intake inhibition (male C57BL/6J mice; bolus ip 1000 nmol/kg, 3 h after administration): 12 ± 5%
CC(C)C[C@H](NC(=O)[C@H](CC(N)=O)NC(=O)[C@H](CC1CCCCC1)NC(=O)[C@H](CC1CCCCC1)NC(=O)[C@H](Cc1c[nH]cn1)NC(=O)[C@H](CCCNC(=N)N)NC(=O)c1ccccc1)C(=O)NC(C)(C)C(=O)N[C@H](C(=O)N[C@@H](CCCNC(=N)N)C(=O)N[C@@H](CCC(N)=O)C(=O)N[C@@H](CCCNC(=N)N)C(=O)N[C@@H](CC1CCCCC1)C(N)=O)[C@@H](C)O [Compound 21, benzoyl-[Cha^27,28,36,Aib^31]PYY(25–36)] (Bz-RH[Cha][Cha]NL[Aib]TRQR[Cha]-NH2)	49% and 49 ± 4%	–	–	% food intake inhibition (male C57BL/6J mice; [3]): 32 ± 3%; % food intake inhibition (cumulative) (male C57BL/6J mice; ip 3 nmol/kg, 3 h after administration): –1 ± 6%; % food intake inhibition (cumulative) (male C57BL/6J mice; ip 3 nmol/kg, 6 h after administration): –1 ± 2%; % food intake inhibition (cumulative) (male C57BL/6J mice; ip 3 nmol/kg, 24 h after administration): –7 ± 5%; % food intake inhibition (cumulative) (male C57BL/6J mice; ip 30 nmol/kg, 3 h after administration): 20 ± 6%; % food intake inhibition (cumulative) (male C57BL/6J mice; ip 30 nmol/kg, 6 h after administration): 18 ± 3%; % food intake inhibition (cumulative) (male C57BL/6J mice; ip 30 nmol/kg, 24 h after administration): –2 ± 3%; % food intake inhibition (cumulative) (male C57BL/6J mice; ip 300 nmol/kg, 3 h after administration): 47 ± 3%; % food intake inhibition (cumulative) (male C57BL/6J mice; ip 300 nmol/kg, 6 h after administration): 45 ± 2%; % food intake inhibition (cumulative) (male C57BL/6J mice; ip 300 nmol/kg, 24 h after administration): 8 ± 3%; minimum effective dose (food intake reduction) (male C57BL/6J mice; food intake 3 and 6 h after dosing): 30 nmol/kg; minimum effective dose (food intake reduction) (male C57BL/6J mice; mass equivalent of 30 nmol/kg): ca. 52 μg/kg; agonist activity, fold lower than that of PYY3–36 (human Y2R [1]): more than 10 fold; binding affinity, fold lower than that of PYY3–36 (human Y2R [2]): more than 10 fold
CC(C)C[C@H](NC(=O)[C@H](CC(N)=O)NC(=O)[C@H](CC1CCCCC1)NC(=O)[C@H](CC1CCCCC1)NC(=O)[C@H](Cc1c[nH]cn1)NC(=O)[C@H](CCCNC(=N)N)NC(=O)C1CCCCC1)C(=O)NC(C)(C)C(=O)N[C@H](C(=O)N[C@@H](CCCNC(=N)N)C(=O)N[C@@H](CCC(N)=O)C(=O)N[C@@H](CCCNC(=N)N)C(=O)N[C@@H](CC1CCCCC1)C(N)=O)[C@@H](C)O [Compound 22] (Cyclohexanecarbonyl-RH[Cha][Cha]NL[Aib]TRQR[Cha]-NH2)	25 ± 7%	4 nM	11 nM	–
CC(C)C[C@H](NC(=O)[C@H](CC(N)=O)NC(=O)[C@H](Cc1cccc2ccccc12)NC(=O)[C@H](CC1CCCCC1)NC(=O)[C@H](Cc1c[nH]cn1)NC(=O)[C@H](CCCNC(=N)N)NC(=O)c1ccccc1)C(=O)NC(C)(C)C(=O)N[C@H](C(=O)N[C@@H](CCCNC(=N)N)C(=O)N[C@@H](CCC(N)=O)C(=O)N[C@@H](CCCNC(=N)N)C(=O)N[C@@H](CC1CCCCC1)C(N)=O)[C@@H](C)O [Compound 19] (Bz-RH[Cha][1Nal]NL[Aib]TRQR[Cha]-NH2)	41 ± 5%	2.7 nM	9.1 nM	–
CC[C@H](C)[C@H](NC(=O)[C@H](CC1CCCCC1)NC(=O)[C@H](Cc1c[nH]cn1)NC(=O)[C@H](CCCNC(=N)N)NC(=O)C1CCCCC1)C(=O)N[C@@H](CC(N)=O)C(=O)N[C@@H](Cc1c[nH]c2ccccc12)C(=O)N[C@H](C(=O)N[C@H](C(=O)N[C@@H](CCCNC(=N)N)C(=O)N[C@@H](CCC(N)=O)C(=O)N[C@@H](CCCNC(=N)N)C(=O)N[C@@H](CC1CCCCC1)C(N)=O)[C@@H](C)O)[C@@H](C)CC [Compound 13] (Cyclohexanecarbonyl-RH[Cha]INWITRQR[Cha]-NH2)	8 ± 6%	1.7 nM	6.8 nM	–
CC[C@H](C)[C@H](NC(=O)[C@H](CC1CCCCC1)NC(=O)[C@H](Cc1c[nH]cn1)NC(=O)[C@H](CCCNC(=N)N)NC(=O)C1CCCCC1)C(=O)N[C@@H](CC(N)=O)C(=O)N[C@@H](Cc1c[nH]c2ccccc12)C(=O)NC(C)(C)C(=O)N[C@H](C(=O)N[C@@H](CCCNC(=N)N)C(=O)N[C@@H](CCC(N)=O)C(=O)N[C@@H](CCCNC(=N)N)C(=O)N[C@@H](CC1CCCCC1)C(N)=O)[C@@H](C)O [Compound 17] (Cyclohexanecarbonyl-RH[Cha]INW[Aib]TRQR[Cha]-NH2)	24 ± 5%	1.9 nM	5.7 nM	–
